Consider 21 compounds from paper PMC7491426 (Frontiers in Chemistry, 2020).

Data set [1] concerns the target T1, HNE (human neutrophil elastase) (Homo sapiens, UniProt P08246).
T1 construct: purchased Calbiochem
T1 sequence (P08246 30-267): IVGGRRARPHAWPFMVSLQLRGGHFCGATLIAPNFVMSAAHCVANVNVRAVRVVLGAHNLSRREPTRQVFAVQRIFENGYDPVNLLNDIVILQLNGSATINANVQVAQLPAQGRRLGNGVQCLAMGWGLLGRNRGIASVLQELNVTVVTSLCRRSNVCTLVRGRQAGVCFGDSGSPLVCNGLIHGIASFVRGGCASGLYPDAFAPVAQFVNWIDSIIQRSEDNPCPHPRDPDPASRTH
In words: HNE inhibition assay (fluorogenic substrate cleavage). In kind it is biochemical. The method, then: Compounds were dissolved in 100% DMSO at 5 mM stock concentrations. […] HNE inhibition assays were performed in black flat-bottom 96-well microtiter plates. Briefly, a solution containing 200 mM Tris–HCl, pH 7.5, 0.01% bovine serum albumin, 0.05% Tween®-20, and 20 mU/mL of HNE (Calbiochem) was added to wells containing different concentrations of each compound. The reaction was initiated by addition of 25 μM elastase substrate (N-methylsuccinyl-Ala-Ala-Pro-Val-7-amino-4-methylcoumarin, Calbiochem) in a final reaction volume of 100 μL/well. Kinetic measurements were obtained every 30 s for 10 min at 25°C using a Fluoroskan Ascent FL fluorescence microplate reader (Thermo Electron, MA) with excitation and emission wavelengths of 355 and 460 nm, respectively. For all compounds tested, the concentration of inhibitor that caused 50% inhibition of the enzymatic reaction (IC50) was calculated by plotting % inhibition vs. logarithm of inhibitor concentration (at least six points).

A short description of data set [2]: Spontaneous hydrolysis (chemical stability) in aqueous phosphate buffer. To be noted: for half-life: phosphate buffer, pH 7.3, 0.05 M phosphate buffer, read-out: t1/2 for the spontaneous hydrolysis (converted); for half-life / t1/2 for the spontaneous hydrolysis: pH 7.3, 25°C; for t1/2 for the spontaneous hydrolysis: 0.05 M phosphate buffer. The data set is classed as physicochemical. As for the experimental part:
Spontaneous hydrolysis of selected derivatives was evaluated at 25°C in 0.05 M phosphate buffer, pH 7.3. Kinetics of compound hydrolysis was monitored by measuring changes in absorbance spectra over time using a SpectraMax ABS Plus microplate spectrophotometer (Molecular Devices, Sunnyvale, CA). Absorbance (At) at the characteristic absorption maxima of each compound was monitored over time until no further absorbance decreases occurred (A∞). Using these measurements, we created semilogarithmic plots of log(At-A∞) vs. time, and k′ values were determined from the slopes of these plots. Half-conversion times were calculated using t1/2 = 0.693/k′.
Spontaneous hydrolysis rates of the inhibitors were measured in phosphate buffer at pH 7.3 and 25°C.

In data set [3] the target is T1, HNE (human neutrophil elastase). As to the kind of experiment: Persistence of HNE inhibition over extended period of time (16 h). In kind it is biochemical. To be noted: monitored during 16 h in the presence of 10 μM inhibitor. The source says: The relatively high enzymatic stability of HNE allowed us to evaluate reversibility of the enzyme inhibition over time.

Where [4] appears, read: mean ± SD of three independent experiments, read-out: IC50 (HNE inhibitory activity).
Setting [5] is: restated in Table 5 beside docking geometry, read-out: IC50.

“And” between values parts separate entries of the source, which are not always exact repeats. Equal entries are not always repeated. Where two headings read alike, the source gives them in different places.

The term melting point denotes the temperature of the solid-liquid transition. As usually defined, the IC50 is the concentration needed to halve the response being measured.

In turn, `CC(C)(C)C(=O)Oc1ccc(S(=O)(=O)n2ncc(=O)c3ccccc32)cc1` [Compound 9a, 4-[(4-Oxocinnolin-1(4H)-yl)sulfonyl]phenyl pivalate] returned a melting point of 116 to 119 °C. Besides, the half-inhibitory concentration (IC50) in data set [1] (setting [4]) worked out at 19 ± 5 nM. Moreover, in data set [2], the half-life was 2.1 h. In data set [3], the “Remaining HNE activity” value was found to be 2.2 ± 0.1%.
In the case of `Cc1c(-c2ccccc2)c(=O)on1S(=O)(=O)c1ccc(OC(=O)C(C)(C)C)cc1` [G, reference compound], in data set [2] (data not shown), the “Chemical stability in aqueous buffer” value is listed as “excellent chemical stability in aqueous buffer”. In addition, in data set [2], the half-life was 5.8 h.
Compound `CC(C)(C)C(=O)Oc1ccc(S(=O)(=O)n2nc(C(F)(F)F)c3cccnc32)cc1` [Compound 3k, 4-{[3-(Trifluoromethyl)-1H-pyrazolo[3,4-b]pyridin-1-yl]sulfonyl}phenyl pivalate] returned a melting point of 135 to 138 °C. The IC50 in data set [1] (setting [4]) stood at 135 ± 37 nM. Also, the half-life in data set [2] was 1.3 h.
Turning to `CC(C)(C)C(=O)Oc1ccc(S(=O)(=O)Nc2ccccc2C(=O)NCC(=O)O)cc1` [Sivelestat, reference compound], the “Remaining HNE activity” value in data set [3] is given as 3.7 ± 0.1%.
For the compound `CC(C)(C)C(=O)Oc1ccc(S(=O)(=O)n2nc(C#N)c3ccccc32)cc1` [Compound 3d, 4-[(3-Cyano-1H-indazol-1-yl)sulfonyl]phenyl pivalate], the melting point is 155 to 158 °C. The IC50 in data set [1] (setting [4]) amounted to 76 ± 11 nM. Moreover, the half-life in data set [2] is 6.1 h. Besides, the “Remaining HNE activity” value in data set [3] came to 4.3 ± 0.3%.
Compound `CCOC(=O)c1cn(S(=O)(=O)c2ccc(OC(=O)C(C)(C)C)cc2)c2ccc([N+](=O)[O-])cc12` [Compound 3b, Ethyl 5-nitro-1-{[4-(pivaloyloxy)pheny]sulfonyl}-1H-indole-3-carboxylate] came in with a melting point of 170 to 173 °C. In addition, in data set [1] (setting [4]), the half-maximal inhibitory concentration (IC50) turned out to be 25 ± 8 nM. The half-life in data set [2] is 6.1 h. In addition, the “Remaining HNE activity” value in data set [3] came out at 20.5 ± 1.7%.
Consider `CC(C)(C)C(=O)Oc1ccc(S(=O)(=O)n2nc(C3CC3)c(=O)c3ccccc32)cc1` [Compound 9b, 4-[(3-Cyclopropyl-4-oxocinnolin-1(4H)-yl)sulfonyl]phenyl pivalate], for which the melting point fell in the range of 121 to 123 °C. Further, the concentration for half-maximal inhibition (IC50) in data set [1] (setting [4]) was 78 ± 18 nM. In addition, the half-life in data set [2] is 1.9 h. Further, in data set [3], the “Remaining HNE activity” value is 9.2 ± 2.5%.
For the compound `CCOC(=O)c1nn(S(=O)(=O)c2ccc(OC(=O)C(C)(C)C)cc2)c2ccc([N+](=O)[O-])cc12` [Compound 3g, Ethyl 5-nitro-1-{[4-(pivaloyloxy)phenyl]sulfonyl}-1H-indazole-3-carboxylate], the melting point was in the range of 185 to 188 °C. Also, the IC50 in data set [1] (setting [4]) was found to be 23 ± 10 nM. Further, in data set [2], the half-life is 1.8 h. Moreover, the “Remaining HNE activity” value in data set [3] stood at 20.1 ± 1.6%.
On to `CC(C)(C)C(=O)Oc1ccc(S(=O)(=O)n2nc(C#N)c3cc([N+](=O)[O-])ccc32)cc1` [Compound 3e, 4-[(3-Cyano-5-nitro-1H-indazol-1-yl)sulfonyl]phenyl pivalate], for which the melting point was in the range of 183 to 186 °C. Besides, in data set [1] (setting [4]), the IC50 is 93 ± 27 nM. Moreover, the half-life in data set [2] was 0.4 h. The “Remaining HNE activity” value in data set [3] is 41.7 ± 3.2%.
The like results for `CC(C)(C)C(=O)Oc1ccc(S(=O)(=O)n2cc(C#N)c3cccnc32)cc1` [Compound 3i, 4-[(3-Cyano-1H-pyrrolo[2,3-b]pyridin-1-yl]sulfonyl)phenyl pivalate] were, in that order, 176 to 179 °C, 55 ± 12 nM, 1.8 h and 2.6 ± 0.5%.
Turning to `CCOC(=O)c1nn(S(=O)(=O)c2ccc(OC(=O)C(C)(C)C)cc2)c2ccccc12` [Compound 3f, Ethyl 1-{[4-(pivaloyloxy)phenyl]sulfonyl}-1H-indazole-3-carboxylate], the melting point lay in the range of 132 to 135 °C. For the same compound, the IC50 in data set [1] (setting [4]) was < 100 nM and 15 nM. For the same compound, in data set [2], the “t1/2 for the spontaneous hydrolysis” value is given as 10.5 h and the half-life was more than 9 h. In addition, the “Remaining HNE activity” value in data set [3] was determined as 5.9 ± 1.2%.
In turn, `Cn1nc(C#N)c2cc(NS(=O)(=O)c3ccc(OC(=O)C(C)(C)C)cc3)ccc21` [Compound 7c, 4-[N-(3-Cyano-1-methyl-1H-indazol-5-yl)sulfamoyl]phenyl pivalate] returned a melting point of 162 to 165 °C. Also, the IC50 in data set [1] (setting [4]) was found to be 394 ± 38 nM. Also, the half-life in data set [2] is 1.5 h.
`CCOC(=O)c1nn(C)c2ccc(NS(=O)(=O)c3ccc(OC(=O)C(C)(C)C)cc3)cc12` [Compound 7d, Ethyl 1-methyl-5-{[4-(pivaloyloxy)phenyl]sulfonamido}-1H-indazole-3-carboxylate] gave a melting point of 130 to 133 °C. Also, in data set [1] (setting [4]), the IC50 is < 100 nM and 86 nM. Moreover, in data set [1] (setting [5]), the concentration for half-maximal inhibition (IC50) came to 86 nM. Also, in data set [2], the “t1/2 for the spontaneous hydrolysis” value is on record as 16.5 h and the half-life was more than 9 h. In data set [3], the “Remaining HNE activity” value stood at 9.1 ± 2.5%.
With `CC(C)(C)C(=O)Oc1ccc(S(=O)(=O)n2nc(C#N)c3cccnc32)cc1` [Compound 3l, 4-[(3-Cyano-1H-pyrazolo[3,4-b]pyridin-1-yl)sulfonyl]phenyl pivalate], the melting point was in the range of 166 to 169 °C. The half-inhibitory concentration (IC50) in data set [1] (setting [4]) stood at 66 ± 9 nM. Moreover, the half-life in data set [2] was 3.5 h. Moreover, the “Remaining HNE activity” value in data set [3] was 4.5 ± 1.7%.
Take `CC(C)(C)C(=O)Oc1ccc(S(=O)(=O)n2cc(C#N)c3ccccc32)cc1` [Compound 3c, 4-[(3-Cyano-1H-indol-1-yl)sulfonyl]phenyl pivalate]: the melting point lay in the range of 133 to 136 °C. The half-maximal inhibitory concentration (IC50) in data set [1] (setting [4]) was < 100 nM and 49 nM. In addition, in data set [2], the “t1/2 for the spontaneous hydrolysis” value is on record as 14.4 h and the half-life is more than 9 h. In addition, in data set [3], the “Remaining HNE activity” value is 2.0 ± 0.4%.
Turning to `Cc1noc(-c2cn(S(=O)(=O)c3ccc(OC(=O)C(C)(C)C)cc3)c3ncccc23)n1` [Compound 3j, 4-{[3-(3-Methyl-1,2,4-oxadiazol-5-yl)-1H-pyrrolo[2,3-b]pyridin-1-yl]sulfonyl}phenyl pivalate], the melting point fell in the range of 164 to 167 °C. The IC50 in data set [1] (setting [4]) worked out at 43 ± 14 nM. The half-life in data set [2] is 2.5 h. Also, the “Remaining HNE activity” value in data set [3] amounted to 26.2 ± 3.4%.
The compound `CC(C)(C)C(=O)Oc1ccc(S(=O)(=O)n2cc(-c3ccccc3)c(=O)o2)cc1` [Compound 11, 4-[(5-Oxo-4-phenylisoxazol-2(5H)-yl)sulfonyl]phenyl Pivalate] came in with a melting point of 166 to 168 °C. The IC50 in data set [1] (setting [4]) amounted to 290 ± 40 nM.
With `Cc1cccc(C(=O)Nc2nn(S(=O)(=O)c3ccc(OC(=O)C(C)(C)C)cc3)c3ccccc23)c1` [Compound 4, 4-{[3-(3-Methylbenzamido)-1H-indazol-1-yl]sulfonyl}phenyl pivalate], the IC50 in data set [1] (setting [4]) came to 62 ± 12 nM. Moreover, the half-life in data set [2] was 6.4 h. Moreover, the “Remaining HNE activity” value in data set [3] is recorded as 8.6 ± 1.7%.
`CCOC(=O)c1nn(C(=O)c2cccc(C)c2)c2ccc(NS(=O)(=O)c3ccc(OC(=O)C(C)(C)C)cc3)cc12` [Compound 7e, Ethyl 1-(3-methylbenzoyl)-5-{[4-(pivaloyloxy)phenyl]sulfonamido}-1H-indazole-3-carboxylate]: the melting point was 180 to 182 °C. The concentration for half-maximal inhibition (IC50) in data set [1] (setting [4]) amounted to 460 ± 120 nM. In addition, the IC50 in data set [1] (setting [5]) came to 460 nM. In data set [2], the half-life is 5.8 h.
The like results for `CCOC(=O)c1cn(C(=O)c2cccc(C)c2)c2ccc(NS(=O)(=O)c3ccc(OC(=O)C(C)(C)C)cc3)cc12` [Compound 7b, Ethyl 1-(3-methylbenzoyl)-5-{[4-(pivaloyloxy)phenyl]sulfonamido}-1H-indole-3-carboxylate] were, in that order, 172 to 175 °C, 5200 ± 140 nM, 5200 nM and 5.3 h.
For the compound `CCOC(=O)c1cn(C)c2ccc(NS(=O)(=O)c3ccc(OC(=O)C(C)(C)C)cc3)cc12` [Compound 7a, Ethyl 1-methyl-5-{[4-(pivaloyloxy)phenyl]sulfonamido}-1H-indole-3-carboxylate], in data set [1] (setting [4]), the concentration for half-maximal inhibition (IC50) is 233 ± 76 nM. Besides, in data set [2], the half-life is 6.8 h.
